Data reported in patent US8882877B2, “Boron-containing synergistic urea and preparation method and application thereof” (Beijing J-Tec Technology Co., Ltd, priority 2012, dated 2014).

Legend:
tomato = assay: Tomato fertilizer test (equivalent and decrement fertilizer); type: in vivo
Description: Test Four: Tomato Fertilizer Test
Test Site Laiyang: City, Shandong Province.
Grow seedling in greenhouse at Feb. 24, 2011, and plant in the greenhouse with a tomato plantation density of 4200 plant/mu.
(§1) 1. The tested fertilizer is the boron-containing synergistic urea developed and supplied by Beijing J-Tec Technology Co., Ltd. (the boron-containing synergistic urea (1) in Embodiment 3, under a trade name of “polypeptide chelated potassium”) while the control fertilizer is ordinary small granular urea and large granular urea in line with national standards; the tested vegetable is tomato (variety of “Millennium”, ? ).
(§2) 2. Test Method: equivalent fertilizer test area and decrement fertilizer test area are arranged, two treatment areas are provided in each test area, and each treatment area is arranged repeatedly for 3 times, ranked in random area and group, each treatment area has an area of 20 m^2 (5 m long, 4 m wide).
Treatment Area 1: the boron-containing synergistic urea is applied, calculated by 70 kg per mu, and flushed together with water after emergence of seedlings;
Treatment Area 2: ordinary small granular urea (as a control area, ck), calculated by 70 kg per mu, and flushed together with water after emergence of seedlings.
Treatment Area 1: the boron-containing synergistic urea is applied with a decrement of 20%, calculated by 56 kg per mu, base fertilizer and additional fertilizer each makes up 50%;
Treatment Area 2: ordinary large granular urea (as a control area, ck), calculated by 70 kg per mu, base fertilizer and additional fertilizer each makes up 50%.
3. Test Requirement: The tomato in each treatment area is harvested, weighed, and calculated separately during each collection and harvest. No other fertilizer is applied during the whole test period, and other cultivation and management measures are the same.
Select one plot (12 plots in total, indicated as 1st plot, 2nd plot and 3rd plot corresponding to each test) randomly from each treatment area 1 and treatment area 2 (control area) respectively, all are 1 m long, 1.45 m wide, and the harvested tomato is weighed on site, and results are as follows: […]

celery = assay: Celery fertilizer test (equivalent and decrement fertilizer); type: in vivo
Description: Test Three: Celery Fertilizer Test 1. Test material: The tested fertilizer is the boron-containing synergistic urea developed and supplied by Beijing J-Tec Technology Co., Ltd. (the boron-containing synergistic urea (1) in Embodiment 3) while the control fertilizer is ordinary small granular urea and large granular urea in line with national standards: the tested vegetable is celery. Area under jurisdiction of […], Shandong Province 3. Test Method: equivalent fertilizer test area and decrement fertilizer test area are arranged, two treatment areas are provided in each test area, and each treatment area is arranged repeatedly for 3 times, ranked in random area and group. Treatment Area 1: the boron-containing synergistic urea is applied, calculated by 70 kg per mu, and flushed together with water after emergence of seedlings; Treatment Area 2: ordinary small granular urea (as a control area, ck), calculated by 70 kg per mu, and flushed together with water after emergence of seedlings. Treatment Area 1: the boron-containing synergistic urea is applied with a decrement of 20%, calculated by 56 kg per mu, base fertilizer and additional fertilizer each makes up 50%; Treatment Area 2: ordinary large granular urea, calculated by 70 kg per mu, base fertilizer and additional fertilizer each makes up 50%. 4. Test Requirement: The celery in each treatment area is harvested, weighed, and calculated separately during each collection and harvest. No other fertilizer is applied during the whole test period, and other cultivation and management measures are the same.

bacterial wilt = assay: Tomato disease resistance: incidence of bacterial wilt; type: in vivo; details: tomato plants in test area vs control area (ck)
Description: as §1, §2
1. Tomato Growing Potential and Disease Resistance

rape = assay: Rape fertilizer test (topdressing); type: in vivo; details: topdressing 20 kg per mu
Description: Test Two: Rape Fertilizer Test 1. Test Material: The tested fertilizer is the boron-containing synergistic urea developed and supplied by Beijing J-Tec Technology Co., Ltd. (the boron-containing synergistic urea (1) in Embodiment 3) while the control fertilizer is ordinary urea available in the market. Nanyang site: Yuanxiang Village, Nanyang Town, Qidong City of Jiangsu Province, an area of 4 mu, rape variety is “Shi Li Jia ? )”. Lvsi site: Nanxinqiao Village, […] Town, Qidong City, an area of 5 mu. 3. Test Method: the boron-containing synergistic urea is used as a topdressing fertilizer (additional fertilizer), 20 kg per mu; while the control field adopts ordinary urea (commercially available), 20 kg per mu. 4. Assessment Content: prior to harvest, field assessments such as density, plant height, effective branch, yield structure are conducted; after harvest, recount the actual yield, and the results are shown in Table 3.

apple tree = assay: Apple tree fertilizer test (equivalent and decrement fertilizer); type: in vivo, apple tree (Red Fuji apple); details: Control Test Area, ordinary urea 70 kg per mu
Description: Test Five: Apple Tree Fertilizer Test 1. Test Fertilizer: the tested fertilizer is the boron-containing synergistic urea developed and supplied by Beijing J-Tec Technology Co., Ltd. (the boron-containing synergistic urea (1) in Embodiment 3) while the control fertilizer is ordinary small granular urea and large granular urea in line with national standards the tested fruit tree is apple tree (variety of “Red Fuji apple”, ? ). 2. Test Site: […], Shandong Province, 3. Tested Variety: apple tree of four years old, variety is Red Fuji apple, planting space is 2 m×3 m, plants with moderate growth, similar tree vigor, and substantially consistent yield, and conventional orchard management is conducted before the test. 4. Test Method: equivalent fertilizer test area and decrement fertilizer test area are arranged, two treatment areas are provided in each test area, 3 tested plants are included in each treatment area and each treatment area is arranged repeatedly for 3 times, ranked in random area and group; The fertilizer is applied in small holes near the plants, and the fertilizing periods are fertilizer application after leaves falling in autumn and additional fertilizer application during fruit expanding period (July and August). Treatment Area 1: the boron-containing synergistic urea is applied, calculated by 70 kg per mu, and flushed together with water; Treatment Area 2: ordinary small granular urea (as a control area, ck), calculated by 70 kg per mu, and flushed together with water. Treatment Area 1: the boron-containing synergistic urea is applied with a decrement of 20%, calculated by 56 kg per mu, base fertilizer and additional fertilizer each makes up 50%; Treatment Area 2: ordinary large granular urea (as a control area, ck), calculated by 70 kg per mu, base fertilizer and additional fertilizer each makes up 50%. Make statistical analysis to flowering numbers and petal numbers in each flower during full-blossom period in spring, and make statistical analysis to fruit setting percentage after full-blossom period and before flower thinning. Measure and record once a month after growth of new shoots; Pick 30 fruits randomly from different portions after fruit ripening, and weigh the single fruit with an electronic balance scale, measure the longitudinal diameter and the transverse diameter with a vernier caliper; observe the fruit surface and the coloring of the fruit; determine the hardness of fruit with a hardometer.

soybean = assay: Soybean fertilizer field plot test; type: in vivo
Description: Test One: Soybean Fertilizer Test During the process of growth, the moisture and temperature are basically normal, which have no particular influence on the test. The basic information for the test plot is: mound albic soil, organic matter content 3.73%, and thickness of black soil layer is 18-20 cm, 1. The tested fertilizer is the boron-containing synergistic urea developed and supplied by Beijing J-Tec Technology Co., Ltd. (the boron-containing synergistic urea (1) in Embodiment 3) while the control fertilizer is ordinary urea available in the market. 2. Field tests adopt plot test (the test plot is located in Haluo Town, […], Shandong Province), three test areas are provided, each test area is divided into three treatment areas, each treatment area is 25.2 m^2, and the three test areas are tested in parallel. Apply base fertilizers uniformly in each test area and sow 4 rows in each treatment area, and subsequently apply additional fertilizers in the three treatment areas as below: Treatment Area 1: additionally apply 5 kg boron-containing synergistic urea once per mu in the flowering and pod bearing period of the soybean; Treatment Area 2: additionally apply 4 kg boron-containing synergistic urea once per mu in the flowering and pod bearing period of the soybean; Treatment Area 3 (control area, ck): additionally apply 5 kg ordinary urea once per mu in the flowering and pod bearing period of the soybean as a control; 4. Adopt normal field management in the growth period of the soybean, harvest and monitor the yield in the mature period respectively, and take the average values of the corresponding treatment areas in the three test areas as the statistical results, see Table 1.

[1] = Decrement fertilizer test (56 kg per mu) and its control (70 kg per mu)
[2] = Decrement fertilizer test (synergistic urea 56 kg per mu) and its control (large granular urea 70 kg per mu)
[3] = Equivalent fertilizer test and its control, 70 kg per mu
[4] = Equivalent fertilizer test and its control, 70 kg per mu, flushed with water
[5] = Lvsi site, two months after fertilizer application
[6] = Nanyang site, two months after fertilizer application
[7] = Treatment Area 1 / 3 (ck): 5 kg per mu
[8] = Treatment Area 1 / 3 (ck): 5 kg per mu once in flowering and pod bearing period

NC(N)=O [ordinary large granular urea, urea]
Average Yield among three plots (tomato; [1]): 116.0 kg
Average Yield per mu (tomato; [1]): 3896.7 kg
Yield 1st plot (tomato; [2]): 114.3 kg
Yield 2nd plot (tomato; [2]): 118.1 kg
Yield 3rd plot (tomato; [2]): 115.6 kg
Yield (celery; 20% decrement fertilizer test, 1st plot, synergistic urea 56 kg per mu, control large granular urea 70 kg per mu): 6.8 kg
Yield (celery; 20% decrement fertilizer test, 2nd plot, synergistic urea 56 kg per mu, control large granular urea 70 kg per mu): 6.0 kg
Yield (celery; 20% decrement fertilizer test, 3rd plot, synergistic urea 56 kg per mu, control large granular urea 70 kg per mu): 5.7 kg
Yield (celery; 20% decrement fertilizer test, three plots in total, synergistic urea 56 kg per mu, control 70 kg per mu): 18.5 kg
observation of celery leaves (celery; Decrement fertilizer test, 30 days after sowing): green and thin leaves

NC(N)=O [ordinary small granular urea, urea]
Average Yield among three plots (tomato; [3]): 114.5 kg
Average Yield per mu (tomato; [3]): 3863.3 kg
Yield 1st plot (tomato; [4]): 111.6 kg
Yield 2nd plot (tomato; [4]): 113.8 kg
Yield 3rd plot (tomato; [4]): 118.0 kg
Yield (celery; Equivalent fertilizer test, 70 kg per mu, 1st plot (1 m x 1.45 m), 52 days after applying fertilizer): 6.6 kg
Yield (celery; Equivalent fertilizer test, 70 kg per mu, 2nd plot, 52 days after applying fertilizer): 7.5 kg
Yield (celery; Equivalent fertilizer test, 70 kg per mu, 3rd plot, 52 days after applying fertilizer): 8.15 kg
Yield (celery; Equivalent fertilizer test, 70 kg per mu, three plots in total): 22.25 kg

NC(N)=O [ordinary urea, urea]
incidence of bacterial wilt (bacterial wilt): 4.54%
1000-Grain Weight (rape; Average of the two test sites): 4.1 g
Density (rape; Average of the two test sites): 5550 plant
Effective Branch (rape; Average of the two test sites): 27 each
Grains per pod (rape; Average of the two test sites): 19.8 grain
Plant Height (rape; Average of the two test sites): 190.5 cm
Yield (rape; Average of the two test sites): 262.7 kg/mu
pods per plant (rape; Average of the two test sites): 583 pod
Yield (rape; Lvsi site): 251.7 kg/mu
1000-Grain Weight (rape; [5]): 3.7 g
Density (rape; [5]): 5550 plant
Effective Branch (rape; [5]): 26 each
Grains per pod (rape; [5]): 20.5 grain
Plant Height (rape; [5]): 185 cm
pods per plant (rape; [5]): 598 pod
Yield (rape; Nanyang site): 269.5 kg/mu
1000-Grain Weight (rape; [6]): 4.5 g
Density (rape; [6]): 5550 plant
Effective Branch (rape; [6]): 28 each
Grains per pod (rape; [6]): 19 grain
Plant Height (rape; [6]): 196 cm
pods per plant (rape; [6]): 568 pod
Fruit Setting Percentage (apple tree): 74.6%
Increment of New Shoots (apple tree): 34.50 cm
Leaf Weight (apple tree): 79.74 g
Single Fruit Weight (apple tree): 202.1 g
Practical Yield (soybean; [7]): 131.8 kg/mu
Theoretical Yield (soybean; [7]): 134.5 kg/mu
100-Grain Weight (soybean; [8]): 15.7 g
Diseased Grain Rate (soybean; [8]): 9.7%
Grains Weight (soybean; [8]): 7.5 g/Plant
Grains per Plant (soybean; [8]): 65.8 Grains/Plant
Plant Height (soybean; [8]): 77.4 cm
Unfilled Grains (soybean; [8]): 28.9 Grains/Plant
Worm Eaten Rate (soybean; [8]): 17.9%
pods per plant (soybean; [8]): 30.1 Pods/Plant
